The source of these data is ChEMBL document CHEMBL2311537, “Antiviral activity of (+)-sattabacin against varicella zoster” (Bioorg Med Chem Lett, 2013).

Data set [1] has as its system MRC5. The experiment in a line: Cytotoxicity against human MRC5 cells assessed as inhibition of cell viability at >1000 uM after 24 hrs by MTT assay. Particulars: mrc5, 24 h. It counts as cell-based.
Data set [2] is described as follows: Cytotoxicity against human MRC5 cells assessed as inhibition of cell viability after 24 hrs by MTT assay. The class given is cell-based. In general terms: Formazan colour is commonly taken as a measure of viable cells.
The subject of a further data set is Human alphaherpesvirus 3. The experiment in a line: Antiviral activity against Varicella zoster virus Ellen infected in human MRC5 cells assessed as inhibition of viral replication by viral reduction plaque assay. The class given is functional, organism-based. As to conditions: Human alphaherpesvirus 3, Ellen.
The nature of data set [3]: Antiviral coefficient, ratio of CC50 for human MRC5 cells to IC50 for Varicella zoster virus Ellen infected in human MRC5 cells. It counts as functional.
The nature of data set [4]: Antiviral coefficient, ratio of CC90 for human MRC5 cells to IC90 for Varicella zoster virus Ellen infected in human MRC5 cells. The class given is functional.
Data set [5] has as its system MRC5. The experiment in a line: Effect on CDC27 gene expression in human MRC5 cells infected with Varicella zoster virus Ellen at 100 uM after 24 hrs by DNA microarray analysis. It counts as functional.
For data set [6], the system named is MRC5. The experiment in a line: Effect on CACNB4 gene expression in human MRC5 cells infected with Varicella zoster virus Ellen at 100 uM after 24 hrs by DNA microarray analysis. The class given is functional.
For data set [7], the system named is MRC5. Briefly: Effect on SLC20A2 gene expression in human MRC5 cells infected with Varicella zoster virus Ellen at 100 uM after 24 hrs by DNA microarray analysis. It counts as functional.
Data set [8] concerns MRC5. The experiment in a line: Effect on KCNS3 gene expression in human MRC5 cells infected with Varicella zoster virus Ellen at 100 uM after 24 hrs by DNA microarray analysis. The class given is functional.
For data set [9], the system named is MRC5. Briefly: Effect on DDX27 gene expression in human MRC5 cells infected with Varicella zoster virus Ellen at 100 uM after 24 hrs by DNA microarray analysis. The class given is functional.
In data set [10] the test system is MRC5. The experiment in a line: Effect on ZMYND15 gene expression in human MRC5 cells infected with Varicella zoster virus Ellen at 100 uM after 24 hrs by DNA microarray analysis. The class given is functional.
The test system of data set [11] is MRC5. Briefly: Effect on PSME1 gene expression in human MRC5 cells infected with Varicella zoster virus Ellen at 100 uM after 24 hrs by DNA microarray analysis. It counts as functional.
Data set [12] deals with MRC5. Briefly: Effect on KRT5 gene expression in human MRC5 cells infected with Varicella zoster virus Ellen at 100 uM after 24 hrs by DNA microarray analysis. It counts as functional.
Data set [13] concerns MRC5. Briefly: Effect on ACTA1 gene expression in human MRC5 cells infected with Varicella zoster virus Ellen at 100 uM after 24 hrs by DNA microarray analysis. It counts as functional.
Data set [14] concerns MRC5. The experiment in a line: Effect on CXCL1 gene expression in human MRC5 cells infected with Varicella zoster virus Ellen at 100 uM after 24 hrs by DNA microarray analysis. It counts as functional.
For data set [15], the system named is MRC5. Briefly: Effect on EIF2B1 gene expression in human MRC5 cells infected with Varicella zoster virus Ellen at 100 uM after 24 hrs by DNA microarray analysis. The class given is functional.
Data set [16] relates to MRC5. The experiment in a line: Effect on TPM2 gene expression in human MRC5 cells infected with Varicella zoster virus Ellen at 100 uM after 24 hrs by DNA microarray analysis. It counts as functional.
Data set [17] concerns MRC5. The experiment in a line: Effect on ADCY8 gene expression in human MRC5 cells infected with Varicella zoster virus Ellen at 100 uM after 24 hrs by DNA microarray analysis. The class given is functional.
The test system of data set [18] is MRC5. The experiment in a line: Effect on RPL37A gene expression in human MRC5 cells infected with Varicella zoster virus Ellen at 100 uM after 24 hrs by DNA microarray analysis. It counts as functional.
For data set [19], the system named is MRC5. The experiment in a line: Effect on SNRPB gene expression in human MRC5 cells infected with Varicella zoster virus Ellen at 100 uM after 24 hrs by DNA microarray analysis. It counts as functional.
In data set [20] the test system is MRC5. The experiment in a line: Effect on MRPS18B gene expression in human MRC5 cells infected with Varicella zoster virus Ellen at 100 uM after 24 hrs by DNA microarray analysis. The class given is functional.
In data set [21] the test system is MRC5. Briefly: Effect on MT1M gene expression in human MRC5 cells infected with Varicella zoster virus Ellen at 100 uM after 24 hrs by DNA microarray analysis. It counts as functional.
For data set [22], the system named is MRC5. Briefly: Effect on SAP18 gene expression in human MRC5 cells infected with Varicella zoster virus Ellen at 100 uM after 24 hrs by DNA microarray analysis. The class given is functional.
The subject of data set [23] is MRC5. The experiment in a line: Effect on ACVR1 gene expression in human MRC5 cells infected with Varicella zoster virus Ellen at 100 uM after 24 hrs by DNA microarray analysis. The class given is functional.
Data set [24] has as its system MRC5. The experiment in a line: Effect on RNF43 gene expression in human MRC5 cells infected with Varicella zoster virus Ellen at 100 uM after 24 hrs by DNA microarray analysis. It counts as functional.

The term CC50 denotes the concentration at which the toxic effect on the cells reaches its halfway point. A word on the IC50: it is the concentration that inhibits the measured activity by half. By IC90 is commonly meant the concentration at which the effect reaches the 90% level. For the compound `CC(C)CC(=O)[C@@H](O)Cc1ccccc1`, the Activity entry with MRC5 [1] is reported as “Toxic”. The CC50 at 24 h in [2] came out at 765 µM. Also, the CC90 at 24 h in [2] came to 3880 µM. Also, the IC50 in the data set on Human alphaherpesvirus 3 is 58 µM. Besides, the IC90 with Human alphaherpesvirus 3 came out at 109 µM. Besides, the “Ratio CC50/IC50” value in data set [3] turned out to be 13.2. In [4], the Ratio was found to be 35.6. Further, the “fold change (FC)” value was found to be 0.823 with MRC5 [5]; 0.741 with MRC5 [6]; 0.675 in the data set on MRC5 [7]; 0.673 in the data set on MRC5 [8]; 0.642 in the data set with MRC5 [9]; 0.577 in the data set on MRC5 [10]. The “fold change (FC)” value in the data set on MRC5 [11] was 0.576; in the data set on MRC5 [12] it was 0.566; with MRC5 [13], 0.545; in the data set on MRC5 [14], 0.544; in the data set on MRC5 [15], -1.402; in the data set with MRC5 [16], -1.336. In addition, the “fold change (FC)” value in the data set with MRC5 [17] is recorded as -1.328; in the data set with MRC5 [18], -1.282; in the data set on MRC5 [19], -1.193; in the data set on MRC5 [20], -1.168; in the data set with MRC5 [21], -1.153; in the data set on MRC5 [22], -1.128. Moreover, the “fold change (FC)” value is reported as -1.105 in the data set with MRC5 [23] and -1.092 with MRC5 [24].

On to `Nc1nc2c(ncn2COCCO)c(=O)[nH]1` [ACYCLOVIR], for which the IC50 in the data set with Human alphaherpesvirus 3 was found to be 13 µM.

As for `Nc1nc(O)c2ncn(CCC(CO)CO)c2n1` [PENCICLOVIR], the IC50 with Human alphaherpesvirus 3 was 16 µM.
